Assay results reported in PMC9506420, “Biological Evaluation of 3-Azaspiro[Bicyclo[3.1.0]Hexane-2,5′-Pyrimidines] as Potential Antitumor Agents” (International Journal of Molecular Sciences, 2022).
Read-outs that look alike come from different tables or passages of the source.

Assays:
[1] = tested on: human cervical carcinoma (HeLa) cell line; assay: MTS antiproliferative (cytotoxicity) assay, HeLa; type: cell-based; settings: HeLa; for SI (selectivity index), HeLa: Vero as reference cell line; for IC50: Homo sapiens
Experimental: (§1) The cytotoxicity of synthesized 3-azaspiro[bicyclo[3.1.0]hexane-2,5′-pyrimidines] 4 against human erythroleukemia (K562), cervical carcinoma (HeLa), and T lymphocyte (Jurkat), as well as mouse colon carcinoma (CT26) and African green monkey kidney epithelial (Vero) cell lines as reference, was evaluated in vitro by the standard MTS assay for 24 and 72 h.
(§2) All the cell lines (human cervical carcinoma (HeLa), erythroleukemia (K-562), and T lymphocyte (Jurkat) as well as mouse colon carcinoma (CT26) and African green monkey kidney epithelial (Vero)) were obtained from the cell repository “Vertebrate cell culture collection” (supported by the Ministry of Science and Higher Education of the Russian Federation, agreement №075-15-2021-683, Institute of Cytology, Russian Academy of Sciences, Saint Petersburg, Russia). HeLa, Jurkat, and Vero cells were cultured in DMEM (HyClone, South Logan, UT, USA) supplemented with 10% (v/v) fetal bovine serum (Hyclone, GE Healthcare Life Sciences, Logan, UT, USA), and gentamicin (Sigma-Aldrich, St. Louis, MO, USA) at 37 °C in a humidified atmosphere with 5% CO2. K-562 and CT26 cells were grown at RPMI medium (Hyclone, GE Healthcare Life Sciences, Logan, UT, USA), with the same supplements and conditions.
(§3) To evaluate the in vitro toxicity of compounds synthesized, cells were seeded into 96-well plates at a density of 5 × 10^3 cells per well. On the next day, tested compounds were added to the wells at concentrations ranging from […], followed by incubation for 1 and 3 days. Cell proliferation was determined by adding 20 μL of MTS reagent (BioVision, Milpitas, CA, USA) stock solution per well. Each plate was incubated for 2 h at 37 °C in a humidified, 5% CO2 atmosphere. The plates were then read at 495 nm using plate spectrophotometer (Multiskan GO, Thermo Fisher Scientific, Waltham, MA, USA). All samples were measured in triplicates.

[2] = tested on: African green monkey kidney epithelial (Vero) cell line; assay: MTS antiproliferative (cytotoxicity) assay, Vero (reference); type: cell-based; settings: Chlorocebus sabaeus, Vero
Experimental: as §1, §2, §3

CT26 tumor = assay: In vivo evaluation in CT26 tumor-bearing Balb/C mice; settings: for death of experimental animals by the end of the observation period: n = 7 per group, single i.p. 300 μL of 3 μM suspension, 10 days, control group one animal; for autopsy finding in the abdominal cavity (agglomerates of injected material): autopsy at end of experiment, diameter of up to 1 mm
Experimental: In vivo studies were performed using CT26 tumor-bearing Balb/C mice. After the average tumor volume reached approximately 270 mm^3, the mice were injected intraperitoneally with 300 μL of 3 μM suspension of compounds 4d, 4e, 4f, and 4i in 10% aq. DMSO solution. Mice in the control group were injected with 300 μL of 10% aq. DMSO solution. Observation of the animals continued for 10 days, with the measurement of tumor sizes two times a week.
All animals were bred and maintained in specific pathogen-free facilities in accordance with the Rus-LASA and FELASA guidelines. This study complied with all relevant ethical regulations for animal testing and research and received ethical approval from the Almazov National Medical Research Centre (protocol No. 21-02, dated 26 March 2021). Animal experiments were carried out in accordance with the principles of humane treatment of animals, regulated by requirements of Council of Europe 2006; European Convention for the Protection of Vertebrate Animals Used for Experimental and other Scientific Purposes (ETS No. 123); the European Parliament and the Council of the European Union 2010; Directive 2010/63/EU of the European Parliament and of the Council of 22 September 2010 on the Protection of Animals Used for Scientific Purposes; and FELASA guidelines. Male, 20–22 g, SPF Balb/C mice (Pushchino, Moscow region, Russian Federation) were used throughout. Animals were maintained at 22 ± 2 °C and relative humidity 50 ± 10% with 12 h light/dark cycle. All mice received water and food ad libitum. Animals were checked daily by the veterinarian, and their state of health was monitored continuously. Animal body weight was recorded every three days (GX-600 Precision Balance, A&D Weighing, San Jose, CA, USA).
The greatest transverse diameter (width) and the greatest longitudinal diameter (length) of a tumor were determined with a Vernier mechanical caliper. The tumor volume (V) was calculated using the following formula: V = length × width 2/2000 [50]. Mice were inoculated subcutaneously in the right flank, with 2 × 10^6 CT26 cells per mouse in PBS (Corning, Glendale, AZ, USA). Ten days later, when the average tumor volume reached […], the mice were randomized into groups (n = 7 per group). An amount of 300 μL of 3 μM suspension of compounds 4d, 4e, 4f, and 4i in 10% aq. DMSO solution was injected intraperitoneally at once. The control group was injected with 10% aq. DMSO solution only. The tumor volumes were monitored as described above, along with body weight. Mice were euthanized when the subcutaneous tumor reached a volume of […].

HeLa cells = assay: Scratch test of cell motility, HeLa; type: cell-based, human; settings: 10 μg/mL, 24 h, serum-free, nontreated 29.3 ± 2.0%
Experimental: To evaluate the ability of tested adducts to inhibit cell-motility-associated metastasis, a scratch test was performed on the HeLa, CT26, and Vero cell lines. The results are shown in Figure 11, Figure 12 and Figure 13. Nontreated HeLa cells filled the scratched strip at 29.3 ± 2.0%, while cells filled 10.4 ± 1.8%, 11.2 ± 1.1%, 20.2 ± 2.9%, 4.8 ± 1.9%, and 11.7 ± 1.8% of the scratched strip under treatment with adducts 4d, 4e, 4f, 4h, and 4i, respectively (Figure 11).
Cells were seeded onto Petri dishes at a density of 5 × 10^5 cells per dish and grown to confluency. Scratch wounds were made with a 200 μL pipette tip, after which detached cells were removed by washing with phosphate-buffered saline. In order to inhibit cell proliferation, culture media was replaced to serum-free DMEM. Compounds 4d, 4e, 4f, […] were added to the cultures at a dose of 10 μg/mL and incubated for 24 h. After that, the cells were stained with Hoechst 33,342 (Thermo Fisher Scientific, Waltham, MA, USA), by adding 2 μL of 1 mg/mL stock solution to 2 mL of medium and DIBAC4 (3) (Thermo Fisher Scientific, Waltham, MA, USA) at the same dose. Images were captured using confocal microscope (Axio Observer Z1, Carl Zeiss MicroImaging GmbH, Jena, Germany). The percentage of wound closure in five randomly chosen fields was calculated with NIH ImageJ software.

[3] = 24 h, read-out: IC50, HeLa, 24 h
[4] = 72 h, read-out: IC50, HeLa, 72 h
[5] = 24 h, read-out: IC50, Vero, 24 h
[6] = 72 h, read-out: IC50, Vero, 72 h

Row | SMILES | SI (selectivity index), HeLa [1] | IC50 [1, 3] | IC50 [1, 4] | IC50 [2, 5] | IC50 [2, 6] | death of experimental animals by the end of the observation period (CT26 tumor) | autopsy finding in the abdominal cavity (agglomerates of injected material) (CT26 tumor; single i.p. injection) | scratched strip filled by cells (HeLa cells) | macroscopic signs of acute toxicity at autopsy (CT26 tumor; single i.p. injection, autopsy of abdominal organs)
1 | CC[C@@H]1NC2(C(=O)NC(=O)NC2=O)[C@]2(c3ccccc3)[C@@H](c3ccccc3)[C@]12c1ccccc1 [Compound 4c] | 1.3 | 21 ± 2 µM | 13 ± 2 µM | 47 ± 11 µM | 16 ± 2 µM |  |  |  | 
2 | O=C1NC(=O)C2(N[C@@H](c3ccccc3)[C@@]3(c4ccccc4)[C@H](c4ccccc4)[C@@]23c2ccccc2)C(=O)N1 [Compound 4i] | 2.0 | 10 ± 2 µM | 12 ± 6 µM | 97 ± 12 µM | 23 ± 4 µM | three | persistent, rounded, dense agglomerates of white or yellowish-white foreign material | 11.7 ± 1.8% | 
3 | CCCC[C@@H]1NC2(C(=O)NC(=O)NC2=O)[C@]2(c3ccccc3)[C@@H](c3ccccc3)[C@]12c1ccccc1 [Compound 4e] | 0.8 | 13 ± 2 µM | 13 ± 4 µM | 23 ± 2 µM | 10 ± 2 µM | two | persistent, rounded, dense agglomerates of white or yellowish-white foreign material | 11.2 ± 1.1% | No signs of acute intoxication
4 | CSCC[C@@H]1NC2(C(=O)NC(=O)NC2=O)[C@]2(c3ccccc3)[C@@H](c3ccccc3)[C@]12c1ccccc1 [Compound 4h] | 1.0 | 28 ± 2 µM | 24 ± 6 µM | 31 ± 4 µM | 22 ± 4 µM |  |  | 4.8 ± 1.9% | 
5 | CC(C)C[C@@H]1NC2(C(=O)NC(=O)NC2=O)[C@]2(c3ccccc3)[C@@H](c3ccccc3)[C@]12c1ccccc1 [Compound 4f] | 0.5 | 19 ± 2 µM | 23 ± 6 µM | 48 ± 6 µM | 10 ± 2 µM | one |  | 20.2 ± 2.9% | 
6 | CCC[C@@H]1NC2(C(=O)NC(=O)NC2=O)[C@]2(c3ccccc3)[C@@H](c3ccccc3)[C@]12c1ccccc1 [Compound 4d] | 1.1 | 17 ± 2 µM | 15 ± 2 µM | 48 ± 4 µM | 16 ± 2 µM | No deaths | persistent, rounded, dense agglomerates of white or yellowish-white foreign material | 10.4 ± 1.8% | 
7 | CCCCCC[C@@H]1NC2(C(=O)NC(=O)NC2=O)[C@]2(c3ccccc3)[C@@H](c3ccccc3)[C@]12c1ccccc1 [Compound 4g] | 1.1 | 15 ± 2 µM | 13 ± 2 µM | 33 ± 6 µM | 14 ± 2 µM |  |  |  | 
